{"source": "patent US20140364500A1", "about": "“URSOLIC ACID SALTS FOR TREATING DIABETES AND OBESITY” (priority 2012, published 2014)", "key": {"[1]": {"experiment": "Solubility determination in water by HPLC assay", "assay_type": "physicochemical", "settings": "filtered, filtrate assayed by HPLC", "description": "The average AUC of the three runs was used to determine the concentration.\nAgilent 1100 HPLC; Eclipse XDB-C18 50×4.6 mm 1.8 micron column; Gradient—5 min 95% water (0.10% TFA) to 95% acetonitrile (0.07% TFA); 1.5 mL/min; UV Detection @ 210 nm."}, "[2]": {"settings": "Merck Index, 11th Edition, page 1556; cited from earlier work"}}, "data": [{"smiles": "C[C@H]1[C@H](C)CC[C@]2(C(=O)O)CC[C@]3(C)C(=CC[C@@H]4[C@@]5(C)CC[C@H](O)C(C)(C)[C@@H]5CC[C@]43C)[C@H]12", "note": "[Ursolic acid]", "values": [{"measurement": "detection by HPLC assay in filtrate of water saturated with the substance", "setting": "[1]", "value": "not detected"}, {"measurement": "solubility in water (literature citation)", "setting": "[2]", "value": "insoluble in water"}]}]}
